Measured values taken from patent US20150119251A1, “AGRICULTURAL PLANT-PROTECTING AGENTS CONTAINING DIPEPTIDE DERIVATIVE AS ACTIVE INGREDIENT” (REPUBLIC OF KOREA (RURAL DEVELOPMENT ADMINISTRATION), priority 2012, published 2015).
Square brackets hold non-standard residues; d marks the D form. Peptide text beside a SMILES is read from it. * marks the point of attachment. ξ: configuration not given here. dIle(3ξ) = CCC(C)[C@@H](N)C(=O)O; Boc = CC(C)(C)OC(=O)*; OtBu = CC(C)(C)O*

Tested on: tobacco bacterial rot (Pectobacterium carotovorum)
Assay: Suppression of tobacco bacterial rot
Type: in vivo, Pectobacterium carotovorum SCC1
Experimental: A tobacco or cucumber was sown in a plastic pot with a diameter of 10 cm×13 cm, and then, 12 pots were added in a yellow box. After seeding, 100 μL was inoculated to the cotyledons of cucumber or tobacco, in which first leaf was started to come out. The test compounds were dissolved in 20% methanol to make a stock solution, and then, the stock solution was diluted to the concentrations of 1, 10, and 100 ppm.
After 7 days, the pathogen of a plant bacterial rot (Pectobacterium carotovorum SCC1) was cultured in a TSA medium for 27 hours; and then, the cultured pathogen was sprayed in a concentration of 10^8 cfu/mL to the plant leaves, and cultured at 30° C. for 3 days. The plant anthracnose germ (Colletotrichum orbiculare) was cultured in a GBA (Green bean agar) medium to induce spores for about 2 to 3 weeks. The germ was sprayed in a concentration of 10^5 cell/mL and then cultured at 26° C. for 1 day. When fourth or fifth leaf came out, 200 μL of each of the test compounds was inoculated to third leaf. After 7 days, the pathogen of the plant bacterial rot was sprayed to the plant leaves in the concentration of 10^8 cfu/mL, and then cultured at 30° C. for 3 days.
The investigation was performed with naked eyes, and the lesion relative areas were investigated until 0 to 100% according to the shortness degrees of the bacterial rot. The anthracnose was investigated by counting the number of lesions occurred on the leaves.

## COC(=O)[C@H]1CCCN1C(=O)[C@H](CCCCNC(=O)OC(C)(C)C)NC(=O)OC(C)(C)C [Compound 48] (Boc-Lys(Boc)-[dP]-OMe)
Table 5, tobacco, 10 ppm
  Lesion outbreak rate: 25%
Table 5, tobacco, 100 ppm
  Lesion outbreak rate: 50%

## COC(=O)[C@H]1CCCN1C(=O)[C@@H](NC(=O)OC(C)(C)C)C(C)C [Compound 49] (Boc-Val-[dP]-OMe)
Table 5, tobacco, 10 ppm
  Lesion outbreak rate: 23%
Table 5, tobacco, 100 ppm
  Lesion outbreak rate: 0%

## COC(=O)[C@H]1CCCN1C(=O)[C@H](CCC(=O)OC(C)(C)C)NC(=O)OC(C)(C)C [Compound 50] (Boc-Glu(OtBu)-[dP]-OMe)
Table 5, tobacco, 10 ppm
  Lesion outbreak rate: 35%
Table 5, tobacco, 100 ppm
  Lesion outbreak rate: 60%

## COC(=O)[C@@H]1CCCN1C(=O)[C@@H](C)NC(=O)OC(C)(C)C [Compound 51] (Boc-[dA]-Pro-OMe)
Table 5, tobacco, 10 ppm
  Lesion outbreak rate: 0%
Table 5, tobacco, 100 ppm
  Lesion outbreak rate: 68%

## COC(=O)[C@@H]1CCCN1C(=O)[C@@H](Cc1c[nH]c2ccccc12)NC(=O)OC(C)(C)C [Compound 52] (Boc-[dW]-Pro-OMe)
Table 5, tobacco, 10 ppm
  Lesion outbreak rate: 0%
Table 5, tobacco, 100 ppm
  Lesion outbreak rate: 25%

## COC(=O)[C@@H]1CCCN1C(=O)[C@@H](Cc1ccc(O)cc1)NC(=O)OC(C)(C)C [Compound 53] (Boc-[dY]-Pro-OMe)
Table 5, tobacco, 10 ppm
  Lesion outbreak rate: 45%
Table 5, tobacco, 100 ppm
  Lesion outbreak rate: 50%

## COC(=O)[C@@H]1CCCN1C(=O)[C@@H](CCC(N)=O)NC(=O)OC(C)(C)C [Compound 54] (Boc-[dQ]-Pro-OMe)
Table 5, tobacco, 10 ppm
  Lesion outbreak rate: 36%
Table 5, tobacco, 100 ppm
  Lesion outbreak rate: 60%

## COC(=O)[C@@H]1CCCN1C(=O)[C@H]1CCCN1C(=O)OC(C)(C)C [Compound 55] (Boc-[dP]-Pro-OMe)
Table 5, tobacco, 10 ppm
  Lesion outbreak rate: 48%
Table 5, tobacco, 100 ppm
  Lesion outbreak rate: 36%

## COC(=O)[C@@H]1CCCN1C(=O)[C@H](NC(=O)OC(C)(C)C)C(C)C [Compound 56] (Boc-[dV]-Pro-OMe)
Table 5, tobacco, 10 ppm
  Lesion outbreak rate: 13%
Table 5, tobacco, 100 ppm
  Lesion outbreak rate: 40%

## COC(=O)[C@@H]1CCCN1C(=O)[C@@H](CC(C)C)NC(=O)OC(C)(C)C [Compound 57] (Boc-[dL]-Pro-OMe)
Table 5, tobacco, 10 ppm
  Lesion outbreak rate: 25%
Table 5, tobacco, 100 ppm
  Lesion outbreak rate: 25%

## CCC(C)[C@@H](NC(=O)OC(C)(C)C)C(=O)N1CCC[C@H]1C(=O)OC (stereo partly shown) [Compound 58] (Boc-[dIle(3ξ)]-Pro-OMe)
Table 5, tobacco, 10 ppm
  Lesion outbreak rate: 28%
Table 5, tobacco, 100 ppm
  Lesion outbreak rate: 13%

## COC(=O)[C@@H]1CCCN1C(=O)[C@@H](Cc1ccccc1)NC(=O)OC(C)(C)C [Compound 59] (Boc-[dF]-Pro-OMe)
Table 5, tobacco, 10 ppm
  Lesion outbreak rate: 38%
Table 5, tobacco, 100 ppm
  Lesion outbreak rate: 25%

## COC(=O)[C@@H]1CCCN1C(=O)[C@@H](CO)NC(=O)OC(C)(C)C [Compound 60] (Boc-[dS]-Pro-OMe)
Table 5, tobacco, 10 ppm
  Lesion outbreak rate: 18%
Table 5, tobacco, 100 ppm
  Lesion outbreak rate: 56%

## COC(=O)[C@@H]1CCCN1C(=O)[C@@H](CCSC)NC(=O)OC(C)(C)C [Compound 63] (Boc-[dM]-Pro-OMe)
Table 5, tobacco, 10 ppm
  Lesion outbreak rate: 56%
Table 5, tobacco, 100 ppm
  Lesion outbreak rate: 52%

## COC(=O)[C@H]1CCCN1C(=O)[C@@H](CO)NC(=O)OC(C)(C)C [Compound 64] (Boc-[dS]-[dP]-OMe)
Table 6, tobacco, 1 ppm
  Lesion outbreak rate: 100%
Table 6, tobacco, 10 ppm
  Lesion outbreak rate: 23%
Table 6, tobacco, 100 ppm
  Lesion outbreak rate: 100%

## COC(=O)[C@H]1CCCN1C(=O)[C@@H](Cc1ccccc1)NC(=O)OC(C)(C)C [Compound 65] (Boc-[dF]-[dP]-OMe)
Table 6, tobacco, 1 ppm
  Lesion outbreak rate: 80%
Table 6, tobacco, 10 ppm
  Lesion outbreak rate: 57%
Table 6, tobacco, 100 ppm
  Lesion outbreak rate: 55%

## COC(=O)[C@H]1CCCN1C(=O)[C@@H](CCSC)NC(=O)OC(C)(C)C [Compound 68] (Boc-[dM]-[dP]-OMe)
Table 6, tobacco, 1 ppm
  Lesion outbreak rate: 78%
Table 6, tobacco, 10 ppm
  Lesion outbreak rate: 53%
Table 6, tobacco, 100 ppm
  Lesion outbreak rate: 25%

## COC(=O)[C@H]1CCCN1C(=O)[C@@H](C)NC(=O)OC(C)(C)C [Compound 70] (Boc-[dA]-[dP]-OMe)
Table 6, tobacco, 1 ppm
  Lesion outbreak rate: 80%
Table 6, tobacco, 10 ppm
  Lesion outbreak rate: 72%
Table 6, tobacco, 100 ppm
  Lesion outbreak rate: 77%

## COC(=O)[C@H]1CCCN1C(=O)[C@@H](Cc1ccc(O)cc1)NC(=O)OC(C)(C)C [Compound 71] (Boc-[dY]-[dP]-OMe)
Table 6, tobacco, 1 ppm
  Lesion outbreak rate: 60%
Table 6, tobacco, 10 ppm
  Lesion outbreak rate: 65%
Table 6, tobacco, 100 ppm
  Lesion outbreak rate: 40%
